Key:
Type in all cases: physicochemical
[1] = Log D (shake flask at pH 5) and Log P
[2] = Competitive slurry experiment for Pattern 1 and Pattern 3; conditions: competitive slurries in DIPE and heptane, room temperature and 50° C.
Protocol: To investigate the relative thermodynamic stability of various crystalline form patterns at room temperature and 50° C., competitive slurry experiments were carried out.
A mixture of Pattern 1 and Pattern 3 (ED01748-028-003-00, 4×20 mg) was dispensed into vials. They were treated with 250 μL of a saturated solution of Pattern 1 (ED01748-006-001-00) in DIPE or heptane (50 mg of ED01748-006-001-00 was treated with DIPE or heptane and heated at 50° C., a portion was removed as needed, and the resulting product was filtered through a 0.45 μm syringe filter, thereby forming a slurry). The produced slurry was stirred at room temperature or 50° C. After analysis, the solid was returned to the vial, and an additional saturated solution was added as needed to maintain the slurry. After 4 days, the purity of the material was confirmed by UPLC.

[3] = Competitive slurry experiment for Pattern 1, Pattern 3, Pattern 6 and Pattern 11
Protocol: A mixture of Pattern 1 and Pattern 3 (ED01748-028-003-00, 10 mg each) was dispensed into four vials, and Pattern 6 (ED01748-034-002-00, 5 mg) and Pattern 11 (ED01748-037-002-00, 5 mg) were added to respective vials. Each sample was treated with 300 μL of a filtered saturated solution of Pattern 1 (ED01748-006-001-00) prepared in DIPE or heptane. The resulting slurries were stirred at room temperature and 50° C. A small sample was periodically removed and analyzed by)(RFD, followed by monitoring as described in the following table.
After analysis, the solid was returned to the vial, and a saturated solution was additionally injected as needed to maintain the slurries. After 25 days, the purity of the solid material obtained in the heptane experiment was confirmed by UPLC, and no significant decrease in purity was shown by UPLC.

logP [1]: 1.32
logD ([1]; shake flask): 1.32
Structure (SMILES): C[C@H](OC(N)=O)[C@@H](O)c1ccccc1Cl [ED01748-006-001-00, 1-(2-chlorophenyl)-(S)-1-hydroxypropyl-(S)-2-carbamate]
Relative thermodynamic stability [2]: more thermodynamically stable than Pattern 3
Relative thermodynamic stability ([3]; conclusion including heptane slurries, room temperature and 50° C., 25 days): more thermodynamically stable than Pattern 11 and Pattern 6
Relative thermodynamic stability ([3]; in DIPE at room temperature and 50° C., after 1 day): more thermodynamically stable than Pattern 3, Pattern 6 and Pattern 11

— patent publication US12054449B2, “Phenylcarbamate crystalline form and method for manufacturing the same” (BIO-PHARM SOLUTIONS CO., LTD., priority 2021, dated 2024)
